Experimental data reported in EP4782449A1, “TRICYCLIC PYRIDINE COMPOUND ACTING AS SARM1 ENZYME ACTIVITY INHIBITOR, AND USE THEREOF” (Artivila (ShenZhen) Innovation Center, Ltd., priority 2023, dated 2025).

Columns and labels:
SARM1 = molecular target: T1, SARM1 (Homo sapiens, UniProt Q6SZW1); experiment: In vitro biochemical assay for inhibiting SARM1 enzyme activity (PC6 fluorescence, NADase); conditions: full-length SARM1 from transfected HEK293 cells; 50 µM NAD, 50 µM PC6, 50 µM NMN activator; room temperature, 30 minutes; read-out: IC50
T1 construct: inventors produced full-length SARM1 for NAD enzyme activity experiments, and used it for screening; His (C); made in house; host or cells: HEK293 cells, transient transfection; supernatant of digitonin lysate, no further purification described
T1 sequence (Q6SZW1 28-724): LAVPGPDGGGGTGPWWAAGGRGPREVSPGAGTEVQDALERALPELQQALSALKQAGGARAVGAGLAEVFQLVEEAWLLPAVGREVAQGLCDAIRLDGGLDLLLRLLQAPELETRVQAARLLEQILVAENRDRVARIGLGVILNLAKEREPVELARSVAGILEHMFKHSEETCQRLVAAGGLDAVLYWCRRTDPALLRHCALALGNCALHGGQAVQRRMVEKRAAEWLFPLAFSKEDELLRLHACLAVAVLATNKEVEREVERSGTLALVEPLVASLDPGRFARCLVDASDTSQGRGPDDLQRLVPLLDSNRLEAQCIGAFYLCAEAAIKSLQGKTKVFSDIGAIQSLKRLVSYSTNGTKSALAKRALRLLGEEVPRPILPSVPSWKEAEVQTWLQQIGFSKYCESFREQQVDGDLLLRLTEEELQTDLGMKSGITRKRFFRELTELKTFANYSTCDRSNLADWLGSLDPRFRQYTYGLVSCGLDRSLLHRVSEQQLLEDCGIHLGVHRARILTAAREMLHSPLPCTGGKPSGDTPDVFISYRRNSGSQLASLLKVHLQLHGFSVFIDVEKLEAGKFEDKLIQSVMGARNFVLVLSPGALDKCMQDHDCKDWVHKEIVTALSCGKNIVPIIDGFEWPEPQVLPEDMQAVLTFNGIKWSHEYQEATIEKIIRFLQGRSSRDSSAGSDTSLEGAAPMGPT
Protocol: The gene sequence of SARM1 protein was amplified using PCR, and the PCR amplification product was constructed into pcDNA3.1-HIS-C plasmid. The above construction was completed by YouBio(Hunan, China). HEK293 cells were cultured in 10 cm dishes using DMEM, and the cells were transfected with 15 μg pcDNA3.1-SARM[…]-C expression plasmid on the following day. Cells were collected 48 hours after transfection, and SARM1 protein expressed in the cells was obtained by digitonin lysis for in vitro activity assay experiments. The specific procedure was as follows: Cells were digested with trypsin-EDTA, then centrifuged at 1000 rpm for 5 minutes, washed once with PBS, and then resuspended in PBS containing 100 μM digitonin, with 0.6 mL PBS for the cells in per 10 cm dish, and lysed for 5 minutes. […] Then the supernatant containing SARM1 protein was collected by centrifugation at 5000 rpm for 10 minutes. […] A group without inhibitor was used as control group. All mixtures were incubated at room temperature for 10 minutes. Then, 50 μM NAD and 50 μM PC6 as substrates and 50 μM NMN as an activator were added to the SARM1 protein incubated with the inhibitor, and the reaction was carried out at room temperature for 30 minutes. The concentrations of each component were the final concentrations in the reaction system. […] Finally, the reaction rate was used to represent the protein activity and calculate the half-maximal inhibitory concentration.

[1] = system: dorsal root ganglion explants; experiment: Axonal Wallerian degeneration assay in mouse DRG explant culture; assay type: cell-based, C57BL/6 male mice; conditions: 10 µM test compound, 2 hours pretreatment, axons transected, images at 0 hour and 24 hours
Description: The experimental method was based on Gerdts J et al. (Gerdts J, Sasaki Y, Vohra B, Marasa J, Milbrandt J. Image-based screening identifies novel roles for IkappaB kinase and glycogen synthase kinase 3 in axonal degeneration. J Biol Chem. 2011 Aug 12;286(32):28011-8).
Dorsal root ganglia were dissected from 2-month-old C57BL/6 male mice and placed in 35 mm culture dishes containing pre-cooled HBSS buffer. Excess tissue from each dorsal root ganglion was removed and cut into 2-3 explants using a scalpel, and the explants were planted in wells of a 96-well plate coated with 100 ng/mL Matrigel (Corning). 100 µL of DRG culture medium (Neurobasal medium (Gibco) containing 2% B-27 (Gibco), 1% GlutaMax (Gibco), and 10 ng/mL NGF (MCE)) was added, then cultured in a 37°C incubator for one week, with medium change on day 4, and experiments were performed on day 8.
0.1 µL of 10 mM test compound was dissolved in 100 µL DRG culture medium to prepare new culture medium containing 10 µM test compound. The culture medium in the 96-well plate was aspirated and new culture medium containing the test compound was added. Then the dorsal root ganglion explants were incubated with the medium in a 37°C incubator for 2 hours for pre-protection. After 2-hour pretreatment, a glass electrode was used to transect axons in the area near the tissue block, and bright-field images of axons in the same area were captured at 0 hour and 24 hours post axonal degeneration using a 20x objective lens of a microscope (Olympus). Axonal integrity was evaluated using an in-house developed script.

Compound | IC50 (SARM1) | Degree of Protection Against Axonal Wallerian Degeneration [1]
O=C1C(Cc2ccc3c(c2)CC3)CCN1c1ccc2c(c1)COc1cnccc1-2 (stereo not shown) [Compound 19] | 1000 to 10000 nM | A (substantial protection (A) >50%)
O=C(CCc1ccc(Br)cc1)Nc1ccc2c(c1)COc1cnccc1-2 [Compound 22] | 100 to 1000 nM | A (substantial protection (A) >50%)
O=C(CCc1ccc(F)c(F)c1)Nc1ccc2c(c1)COc1cnccc1-2 [Compound 25] | < 100 nM | A (substantial protection (A) >50%)
O=C(CCc1ccc(Cl)c(F)c1)Nc1ccc2c(c1)COc1cnccc1-2 [Compound 28] | 100 to 1000 nM | A (substantial protection (A) >50%)
O=C(CCc1ccc(F)cc1)Nc1ccc2c(c1)COc1cnccc1-2 [Compound 29, 3-(4-fluorophenyl)-N-(6H-isochromeno[3,4-c]pyridin-8-yl)propanamide] | < 100 nM | A (substantial protection (A) >50%)
N#Cc1ccc(CCC(=O)Nc2ccc3c(c2)COc2cnccc2-3)cc1F [Compound 30] | 100 to 1000 nM | A (substantial protection (A) >50%)
O=C(CCc1ccc(C(F)(F)F)cc1)Nc1ccc2c(c1)COc1cnccc1-2 [Compound 32] | 100 to 1000 nM | B (partial protection (B): 20% to 50%)
N#Cc1ccc(CCC(=O)Nc2ccc3c(c2)COc2cnccc2-3)cc1 [Compound 33] | < 100 nM | A (substantial protection (A) >50%)
O=C(CCc1ccc(F)cc1F)Nc1ccc2c(c1)COc1cnccc1-2 [Compound 37] | 100 to 1000 nM | A (substantial protection (A) >50%)
O=C(CCc1ccc(Cl)cc1F)Nc1ccc2c(c1)COc1cnccc1-2 [Compound 40] | 1000 to 10000 nM | A (substantial protection (A) >50%)
O=C(NCc1ccc(F)cc1)Nc1ccc2c(c1)COc1cnccc1-2 [Compound 45, 1-(4-fluorobenzyl)-3-(6H-isochromeno[3,4-c]pyridin-8-yl)urea] | < 100 nM | A (substantial protection (A) >50%)
O=C1C(Cc2cccc3c2CCCC3)CCN1c1ccc2c(c1)COc1cnccc1-2 (stereo not shown) [Compound 56] | 1000 to 10000 nM | B (partial protection (B): 20% to 50%)
O=C1C(Cc2ccc3occc3c2)CCN1c1ccc2c(c1)COc1cnccc1-2 (stereo not shown) [Compound 57] | 100 to 1000 nM | B (partial protection (B): 20% to 50%)
O=C1C(Cc2ccc3ccsc3c2)CCN1c1ccc2c(c1)COc1cnccc1-2 (stereo not shown) [Compound 58] | 1000 to 10000 nM | B (partial protection (B): 20% to 50%)
O=C1C(Cc2ccncc2)CCN1c1ccc2c(c1)COc1cnccc1-2 (stereo not shown) [Compound 62] | 100 to 1000 nM | A (substantial protection (A) >50%)
O=C(NCc1ccc(Cl)cc1)Nc1ccc2c(c1)COc1cnccc1-2 [Compound 63] | 100 to 1000 nM | A (substantial protection (A) >50%)
O=C(NCc1ccc(Cl)c(Cl)c1)Nc1ccc2c(c1)COc1cnccc1-2 [Compound 65] | 1000 to 10000 nM | B (partial protection (B): 20% to 50%)
O=C(NCc1cc(F)c(F)c(F)c1)Nc1ccc2c(c1)COc1cnccc1-2 [Compound 67] | < 100 nM | A (substantial protection (A) >50%)
O=C(NCc1ccc(Cl)c(F)c1)Nc1ccc2c(c1)COc1cnccc1-2 [Compound 68] | 100 to 1000 nM | A (substantial protection (A) >50%)
N#Cc1ccc(CNC(=O)Nc2ccc3c(c2)COc2cnccc2-3)cc1 [Compound 70] | 1000 to 10000 nM | B (partial protection (B): 20% to 50%)
O=C(NCc1ccccc1)Nc1ccc2c(c1)COc1cnccc1-2 [Compound 71] | 1000 to 10000 nM | B (partial protection (B): 20% to 50%)
Cc1ccc(CNC(=O)Nc2ccc3c(c2)COc2cnccc2-3)cc1 [Compound 72] | 100 to 1000 nM | B (partial protection (B): 20% to 50%)
CC(Cc1ccc(F)cc1)C(=O)Nc1ccc2c(c1)COc1cnccc1-2 (stereo not shown) [Compound 73] | 100 to 1000 nM | A (substantial protection (A) >50%)

Second part, led by results:

IC50 (SARM1) | Compound | Degree of Protection Against Axonal Wallerian Degeneration [1]
< 100 nM | O=C(CCc1ccc(Cl)c(Cl)c1)Nc1ccc2c(c1)COc1cnccc1-2 [Compound 21] | A (substantial protection (A) >50%)
< 100 nM | O=C(CCc1cc(F)c(F)c(F)c1)Nc1ccc2c(c1)COc1cnccc1-2 [Compound 27] | B (partial protection (B): 20% to 50%)
< 100 nM | O=C(CCc1cccc(F)c1)Nc1ccc2c(c1)COc1cnccc1-2 [Compound 34] | A (substantial protection (A) >50%)
1000 to 10000 nM | O=C(CCc1ccc(Cl)s1)Nc1ccc2c(c1)COc1cnccc1-2 [Compound 36] | A (substantial protection (A) >50%)
< 100 nM | O=C(CCc1cc(F)cc(F)c1)Nc1ccc2c(c1)COc1cnccc1-2 [Compound 39] | A (substantial protection (A) >50%)
100 to 1000 nM | Cc1ccc(CCC(=O)Nc2ccc3c(c2)COc2cnccc2-3)cc1 [Compound 41] | A (substantial protection (A) >50%)
< 100 nM | O=C(CCc1ccc(Cl)cc1)Nc1ccc2c(c1)COc1cnccc1-2 [Compound 42, 3-(4-chlorophenyl)-N-(6H-isochromeno[3,4-c]pyridin-8-yl)propanamide] | A (substantial protection (A) >50%)
100 to 1000 nM | O=C(NCc1ccc(F)c(F)c1)Nc1ccc2c(c1)COc1cnccc1-2 [Compound 46] | A (substantial protection (A) >50%)
100 to 1000 nM | O=C(NCc1cccc(F)c1)Nc1ccc2c(c1)COc1cnccc1-2 [Compound 47] | A (substantial protection (A) >50%)
100 to 1000 nM | O=C(CCc1cccnc1)Nc1ccc2c(c1)COc1cnccc1-2 [Compound 50] | A (substantial protection (A) >50%)
1000 to 10000 nM | O=C1C(Cc2cc3ccccc3o2)CCN1c1ccc2c(c1)COc1cnccc1-2 (stereo not shown) [Compound 59] | B (partial protection (B): 20% to 50%)
< 100 nM | O=C(COc1ccc(F)cc1)Nc1ccc2c(c1)COc1cnccc1-2 [Compound 74] | B (partial protection (B): 20% to 50%)
